Measurements: US12478620B2, “Cyano-substituted cyclic hydrazine derivative and application thereof” (E-nitiate Biopharmaceuticals (Hangzhou) Co., Ltd, priority 2019, dated 2025)

Experiments:
[1] = target: JAK1 (Homo sapiens, UniProt P23458); assay: JAK kinase inhibitor activity detection (ULight-JAK-1 substrate, Eu-labeled anti-phosphotyrosine antibody), JAK1; format: biochemical; conditions: JAK1 10 nM, substrate 50 nM, ATP 40 uM, 2 h room temperature
Description: (§1) Activity Detection of Small Molecule Inhibitors of JAK Kinase
(§2) • (1) kinase reaction buffer • Prepare the kinase reaction buffer with the following components: 50 mM HEPES, pH 7.5, 1 mM EGTA, 10 mM MgCl2, 2 mM DTT, 0.01% Tween20 • (2) 1× detection buffer • To prepare detection buffer, dilute 10× detection buffer to 1× with deionized water 9:1 • (3) 4× kinase solution • Dilute JAK to 4× final concentration by JAK reaction buffer (JAK1: 40 nM, JAK2: 0.5 nM) • (4) 4× substrate solution • Dilute ULight™-JAK-1 (Tyr1023) substrate to 200 nM by kinase reaction buffer (final concentration: 50 nM) • (5) 4×ATP solution • Dilute ATP to 4× final concentration by kinase reaction buffer (JAK1: 160 μM, JAK2: 40 μM) • (6) 4× compound testing solution • DMSO dissolves the testing compound into 10 mM stock solution, then prepared to the desired concentration with 3-fold serial dilution, and 10 concentration points were set for each compound. Besides, the final concentration range of the testing compound is: 10 μM-0.5 nM • (7) 4× enzyme reaction termination liquid • 1× test buffer dissolves EDTA to 40 mM (EDTA final concentration: 10 mM) • (8) 4× antibody detection solution • 1× test buffer dilutes Eu labeled antibody (anti-phosphotyrosine (PT66)) to 8 nM (antibody final concentration: 2 nM) 2. Experimental Process • (1) Successively add 2.5 μL 4×JAK solution, and 2.5 μL of diluted 4× test compound solution in different concentrations to the 384 microporous plate, and set 2 multi-wells for each concentration. Meanwhile, set enzyme solution blank control group and negative control group (DMSO group). • (2) Shake the 384-hole plate, mix enzymes and compounds, centrifuge at 1000 rpm for 1 minute, and incubate at room temperature for 60 minutes • (3) Add 2.5 μL of 4× substrate solution to a 384-hole plate and centrifuge at 1000 rpm for 1 min • (4) Add 2.5 μL of 4×ATP solution to the 384 multi-well plate and centrifuge at 1000 rpm for 1 minute to initiate the enzyme reaction. • (5) JAK1 reacts at room temperature for 2 h, and JAK2 react at room temperature for 1 h. • (6) The final concentrations of each group of the JAK1 reaction are: JAK1: 10 nM, substrate: 50 nM, ATP: 40 uM, and the final concentration range of the test compound is: 10 μM-0.5 nM • The final concentrations of each group of the JAK2 reaction are: JAK2: 0.125 nM, substrate: 50 nM, ATP: 10 μM, and the final concentration range of test compounds is: 10 μM-0.5 nM • (7) After the enzyme reaction, add 5 μL of 4× enzyme reaction stop solution to each well of the 384-well plate with 1000 rpm, centrifuge for 1 minute, and incubate at room temperature for 5 min. • (8) Add 5 μL of 4× detection antibody solution to each well of a 384-well plate (final concentration of detection antibody is 2 nM) with 1000 rpm, centrifuge for 1 minute, and incubate at room temperature for 1 h. • (10) After antibody incubation, measure the signal value of each well on an Envision plate reader 3. Data Analysis • (1) Taking the enzyme solution blank control group as 100% inhibition rate and the negative control group (DMSO group) as 0% inhibition rate, calculate the percentage inhibition rate corresponding to each concentration of the tested compounds • (2) In GraphPad Prism software, nonlinear regression analysis is performed on the concentration logarithm of the test compound and the corresponding percentage inhibition rate to obtain the half-inhibitory concentration (IC50) of the test compound.

[2] = target: JAK2 (Homo sapiens, UniProt O60674); assay: JAK kinase inhibitor activity detection (ULight-JAK-1 substrate, Eu-labeled anti-phosphotyrosine antibody), JAK2; format: biochemical; conditions: JAK2 0.125 nM, substrate 50 nM, ATP 10 μM, 1 h room temperature
JAK2, sequence (O60674 whole entry, species assumed): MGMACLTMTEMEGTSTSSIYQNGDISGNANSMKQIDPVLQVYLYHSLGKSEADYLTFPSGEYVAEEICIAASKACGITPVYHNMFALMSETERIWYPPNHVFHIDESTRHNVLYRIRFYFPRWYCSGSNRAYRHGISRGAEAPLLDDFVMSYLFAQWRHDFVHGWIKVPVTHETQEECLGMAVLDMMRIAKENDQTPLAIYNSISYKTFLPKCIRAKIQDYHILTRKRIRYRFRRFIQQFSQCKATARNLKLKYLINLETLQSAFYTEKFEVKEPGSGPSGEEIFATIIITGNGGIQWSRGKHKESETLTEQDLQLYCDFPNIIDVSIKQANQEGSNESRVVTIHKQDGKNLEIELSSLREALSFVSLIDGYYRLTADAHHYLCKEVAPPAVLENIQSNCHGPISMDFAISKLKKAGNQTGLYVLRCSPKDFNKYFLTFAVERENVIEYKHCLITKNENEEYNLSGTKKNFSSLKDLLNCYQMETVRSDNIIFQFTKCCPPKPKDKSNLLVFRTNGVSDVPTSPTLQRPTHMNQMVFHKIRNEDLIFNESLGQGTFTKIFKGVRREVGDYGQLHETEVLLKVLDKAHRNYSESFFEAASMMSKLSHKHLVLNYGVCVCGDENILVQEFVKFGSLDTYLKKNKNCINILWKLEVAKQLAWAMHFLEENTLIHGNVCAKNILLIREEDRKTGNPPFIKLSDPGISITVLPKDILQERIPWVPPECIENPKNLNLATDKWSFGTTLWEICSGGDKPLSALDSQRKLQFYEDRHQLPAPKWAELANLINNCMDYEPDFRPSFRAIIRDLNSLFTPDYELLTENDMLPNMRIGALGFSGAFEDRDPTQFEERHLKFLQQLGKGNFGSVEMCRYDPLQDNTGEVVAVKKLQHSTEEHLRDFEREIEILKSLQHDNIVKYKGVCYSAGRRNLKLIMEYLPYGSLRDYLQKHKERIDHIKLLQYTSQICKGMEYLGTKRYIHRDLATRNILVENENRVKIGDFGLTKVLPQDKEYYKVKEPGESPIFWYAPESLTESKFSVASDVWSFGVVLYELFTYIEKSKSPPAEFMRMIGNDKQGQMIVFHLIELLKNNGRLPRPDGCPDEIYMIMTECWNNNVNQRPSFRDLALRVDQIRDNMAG
Description: as §1, §2

JAK1, sequence (P23458 whole entry, species assumed): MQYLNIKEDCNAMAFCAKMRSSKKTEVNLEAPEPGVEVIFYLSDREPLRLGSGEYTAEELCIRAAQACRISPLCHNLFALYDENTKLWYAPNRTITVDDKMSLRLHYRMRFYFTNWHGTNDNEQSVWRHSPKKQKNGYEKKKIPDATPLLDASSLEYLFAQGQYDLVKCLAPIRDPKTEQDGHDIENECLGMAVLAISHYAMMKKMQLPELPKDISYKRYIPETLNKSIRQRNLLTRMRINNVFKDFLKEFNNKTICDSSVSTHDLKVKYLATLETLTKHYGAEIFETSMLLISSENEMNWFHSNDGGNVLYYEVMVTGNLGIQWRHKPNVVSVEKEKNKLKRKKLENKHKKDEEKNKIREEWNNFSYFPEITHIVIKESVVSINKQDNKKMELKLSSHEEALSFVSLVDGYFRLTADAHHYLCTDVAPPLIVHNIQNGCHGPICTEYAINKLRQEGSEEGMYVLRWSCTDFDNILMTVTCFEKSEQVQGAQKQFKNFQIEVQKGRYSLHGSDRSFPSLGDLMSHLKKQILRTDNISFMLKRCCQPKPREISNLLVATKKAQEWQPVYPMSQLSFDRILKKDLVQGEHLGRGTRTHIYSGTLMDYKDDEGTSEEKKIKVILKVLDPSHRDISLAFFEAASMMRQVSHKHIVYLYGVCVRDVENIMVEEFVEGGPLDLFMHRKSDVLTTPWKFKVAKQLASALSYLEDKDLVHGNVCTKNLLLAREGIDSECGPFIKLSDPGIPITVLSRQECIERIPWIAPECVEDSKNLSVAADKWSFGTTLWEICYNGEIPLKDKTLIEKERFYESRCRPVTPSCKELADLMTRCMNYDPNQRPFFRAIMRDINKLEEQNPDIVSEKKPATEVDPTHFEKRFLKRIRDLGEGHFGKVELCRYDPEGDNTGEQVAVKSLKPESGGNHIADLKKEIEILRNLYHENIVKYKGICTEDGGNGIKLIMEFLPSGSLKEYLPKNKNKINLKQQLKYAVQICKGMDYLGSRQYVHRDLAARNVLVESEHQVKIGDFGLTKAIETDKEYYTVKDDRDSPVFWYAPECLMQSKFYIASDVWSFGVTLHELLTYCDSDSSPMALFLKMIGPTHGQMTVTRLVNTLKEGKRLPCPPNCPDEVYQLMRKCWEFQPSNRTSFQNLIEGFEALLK

IC50 [1] | IC50 [2] | Compound
2.8 nM | 28.1 nM | CC1CN(C(=O)CC#N)CN1n1cnc2cnc3[nH]ccc3c21 (stereo not shown) [Example 30, 3-(4-methyl-3-(imidazo[4,5-d]pyrrolo[2,3-b]pyridine-1(6H)-yl)imidazoline-1-yl)-3-Oxopropionitrile]
6.9 nM | 71.8 nM | N#CCC(=O)N1CCN(n2cnc3cnc4[nH]ccc4c32)C1 [Example 31, 3-(3-(imidazo[4,5-d]pyrrolo[2,3-b]pyridine-1(6H)-yl)imidazoline-1-yl)-3-oxopropionitrile]
6.8 nM | 15.3 nM | CC[C@@H]1CN(C(=O)CC#N)CN1n1cnc2cnc3[nH]ccc3c21 [Example 32, (R)-3-(4-ethyl-3-(imidazo[4,5-d]pyrrolo[2,3-b]pyridine-1(6H)-yl)imidazoline-1-yl)-3-oxopropionitrile]
11.2 nM | 29.1 nM | N#CCC(=O)NC1CCN(n2cnc3cnc4[nH]ccc4c32)C1 (stereo not shown) [Example 33, 2-cyano-N-(1-(imidazo[4,5-d]pyrrolo[2,3-b]pyridine-1(6H)-yl)pyrrolidine-3-yl)acetamide]
73.8 nM | 51.7 nM | N#CCNC1CCN(n2cnc3cnc4[nH]ccc4c32)C1 (stereo not shown) [Example 34, 2-((1-(imidazo[4,5-d]pyrrolo[2,3-b]pyridine-1(6H)-yl)pyrrolidine-3-yl)amino)acetonitrile]
9.5 nM | 61.3 nM | CC[C@@H]1C[C@H](C#N)CN1n1cnc2cnc3[nH]ccc3c21 [Example 35, (3S,5R)-5-ethyl-1-(imidazo[4,5-d]pyrrole[2,3-b]pyridine(6H)-yl)pyrrolidine-3-carbonitrile]
6.8 nM | 23.5 nM | CC[C@@H]1C[C@@H](CC#N)CN1n1cnc2cnc3[nH]ccc3c21 [Example 36-1, 2-((3S,5R)-5-ethyl-1-(imidazo[4,5-d]pyrrolo[2,3-b]pyridine-1(6H)-yl)pyrrolidin-3-yl) acetonitrile]
43.6 nM | 127 nM | CC[C@@H]1C[C@H](CC#N)CN1n1cnc2cnc3[nH]ccc3c21 [Example 36-2, 2-((3R,5R)-5-ethyl-1-(imidazo[4,5-d]pyrrolo[2,3-b]pyridine-1(6H)-yl)pyrrolidin-3-yl) acetonitrile]
